# Source: patent US9187411B2, “Leukotriene B4 antagonist compound” (Eli Lilly and Company, priority 2012, dated 2015)
# What was measured:
# [1] = test system: CaCl2-induced abdominal aortic aneurysm; test: CaCl2-induced AAA animal efficacy model, rats; assay type: in vivo, Sprague-Dawley rats; conditions: 28 days, aortic lumenal perimeter
# Source text: A targeted application of a calcium chloride solution to the mouse aorta induces vessel dilatation Chiou et al. J. Surg. Res. (2001), 99: 371-376; Lomgo et al. J. Clin. Invest. (2002), 110: 625-632. Two weeks after treatment, the vessel dilatation compared to the original vessel diameter becomes statistically significant, with up to 75% increase of aortic lumenal perimeter after 4 weeks. Calcium precipitates have been localized primarily within the elastic network of the media. Disruption of this structure by the calcium-elastic tissue complex weakens the vessel wall, contributing to aneurysm formation. This injury also serves as a proinflammatory stimulus, recruiting neutrophils, lymphocytes, monocytes, and mast cells.
# Rats: Sprague-Dawley rats, 7-8 weeks of age, are acquired from Harlan, Indianapolis, Ind., USA
# Aneurysm Induction Model: All procedures are performed in accordance with Eli Lilly and Company Institutional Animal Care and Use guidelines. Upon their arrival, animals have a one week acclimation period during which they have ad libitum access to standard rodent chow (Purina #2014) and house water. Following the acclimation period, animals are anesthetized with isoflurane, and a laparotomy is performed for the CaCl2-stimulated induction of the abdominal aortic aneurysm (AAA). […] Once isolated, the region of interest (ROI) of the abdominal aorta is wrapped with sterile, cotton gauze presoaked in a 0.25 M CaCl2 solution. In sham control animals, 0.9% saline is substituted for CaCl2. After 7 min, the gauze is removed and a second CaCl2 soaked gauze reapplied. Following the second 7 min period, the gauze is removed, the aorta rinsed with 0.9% saline and the abdomen closed Animals are returned to general housing at the end of their surgical day. Compound Administration: Mice receive test compound (Example 2) by oral gavage at a dose volume of 10 mL/kg of body weight, and rats receive test compound (Example 2) by oral gavage at a dose volume of 2.5 mL/kg of body weight. Compound administration is BID (a.m. and p.m.) with the first dose given one day prior to surgery (p.m.) and the second dose given the morning of surgery. […] The day after surgery, dosing continues BID for 28 days. […] Interior cross sectional lumenal perimeter measurements (mm) are collected at that point to assess efficacy and statistically analyzed with JMP® 7 software (Cary, N.C.). Statistical Analysis: Measurements of lumenal perimeter are expressed as mean values±SE. […]
# In a similar study design, the ability of the compound of Example 2 to modulate aortic aneurysm dilation following CaCl2-induced injury is evaluated in Sprague-Dawley rats.
# [2] = test system: LTB4-induced CD11b expression in neutrophils; test: CD11b assay, human whole blood; assay type: cell-based; conditions: Neutrophil, 10 nM LTB4
# Method: EDTA anti-coagulated blood is collected from human donors or mice as before. For in vitro experiments, 8 or 10 point dose response curves of test compounds are assayed at final concentrations of 78 nM-10 μM or 20 nM-10 μM respectively. ½ serial dilutions of compound at 1000× of final assayed concentration are prepared in DMSO. Compound is then diluted to 10× in DPBS (DMSO concentration is now 1%). 10 μL of compound dilutions (at 10× in DPBS) or 1% DMSO in DPBS are added to wells of a 96 deep well plate. 90 μL whole blood is added and incubated 20 min at room temperature. 11 μL of 10×LTB4 (final concentration 25 nM for mouse or 10 nM human) is added and incubated at 37° C. for 30 min. The reaction is stopped by incubating the plate on ice for 5 min. The cells are stained with 10 μL anti-mouse or anti-human CD11b-PE (BD Biosciences diluted 1:20 for mouse and undiluted for human) and incubated on ice for 30 min in the dark (for mouse experiments, 10 μL anti-mouse LY6G-FITC antibody (BD Pharmingen) diluted 1:25 is added for the final 10 min) Red blood cells (RBCs) are lysed by adding 1.5 mL of 1×BD FACSlyse (BD Biosciences) and incubating for 10 min at room temperature in the dark. […] Data are analyzed with WinList software (Verity Software House) to determine mean and median fluorescent intensity values for CD11b-PE from neutrophil population.
smiles,measurement,setting,value
"CCCc1c(NC(=O)CC(C)(C)C(=O)[O-])cccc1OCCCOc1cc(O)c(-c2ccc(F)cc2)cc1CC.[Na+] [Example 2, Sodium 4-[[3-[3-[2-ethyl-4-(4-fluorophenyl)-5-hydroxy-phenoxy]propoxy]-2-propyl-phenyl]amino]-2,2-dimethyl-4-oxo-butanoate]",% Reduced (±S.E.) of AAA,[1]; 3 mg/kg b.i.d. oral gavage,46% ± 7
same,% Reduced (±S.E.) of AAA,[1]; 10 mg/kg b.i.d. oral gavage,69% ± 4
same,% Reduced (±S.E.) of AAA,[1]; 30 mg/kg b.i.d. oral gavage,85% ± 5
same,% Reduced (±S.E.) of AAA,[1]; 60 mg/kg b.i.d. oral gavage,69% ± 10
same,IC50,[2],193 nM
